From the supplement of paper PMC6045584
± gives the standard deviation of the averaged measurements.

Columns and labels:
[1] = compound: O=C(O)CC[C@H]1CC[C@@](c2cc(F)ccc2F)(S(=O)(=O)c2ccc(Cl)cc2)CC1 [MK0752]; assay: surviving fraction relative to DMSO-only wells; higher = less growth inhibition; conditions: exposure time: 5 days
In short: (§1)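 Tumour cell lines were seeded in log phase at 250–500 cells per well into 384-well plates. Starting 24 hours later, inhibitors were present continuously for five days at 0.5, 1, 5, 10, 50, 100, 500 and 1000 nM. Surviving fraction, from CellTiter-Glo luminescence, is normalised to the median of DMSO-only wells. Three screens per line were required, with replicate Pearson r >0.7 and median Z' >0.3 for a line to be kept.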

[2] = compound: CCN(CC)CCNC(=O)c1c(C)[nH]c(/C=C2\C(=O)Nc3ccc(F)cc32)c1C [SUNITINIB]; assay: as above; conditions: exposure time: 5 days
In short: as §1

Row | Test System | surviving fraction ([1]; 0.5 nM) | surviving fraction ([1]; 1 nM) | surviving fraction ([1]; 5 nM) | surviving fraction ([1]; 10 nM) | surviving fraction ([1]; 50 nM) | surviving fraction ([1]; 100 nM) | surviving fraction ([1]; 500 nM) | surviving fraction ([1]; 1000 nM) | surviving fraction ([2]; 0.5 nM) | surviving fraction ([2]; 1 nM) | surviving fraction ([2]; 5 nM) | surviving fraction ([2]; 10 nM) | surviving fraction ([2]; 50 nM) | surviving fraction ([2]; 100 nM) | surviving fraction ([2]; 500 nM) | surviving fraction ([2]; 1000 nM)
1 | SG31 HEADNECK | 1.16 ± 0.18 | 1.07 ± 0.14 | 1.02 ± 0.2 | 0.991 ± 0.21 | 0.881 ± 0.14 | 0.963 ± 0.099 | 1.04 ± 0.17 | 1.11 ± 0.095 | 0.778 ± 0.067 | 0.858 ± 0.037 | 0.884 ± 0.12 | 0.419 ± 0.04 | 0.93 ± 0.06 | 0.962 ± 0.14 | 0.797 ± 0.13 | 0.343 ± 0.017
2 | SG32 HEADNECK | 1.11 ± 0.091 | 1.2 ± 0.039 | 1.26 ± 0.085 | 1.23 ± 0.11 | 1.21 ± 0.23 | 1.18 ± 0.039 | 0.972 ± 0.14 | 1.05 ± 0.086 |  | 0.578 ± 0.032 | 0.771 ± 0.13 | 0.423 ± 0.078 | 0.96 ± 0.045 | 0.609 ± 0.062 | 0.317 ± 0.048 | 0.0993 ± 0.011
3 | SG43 HEADNECK | 0.854 ± 0.3 | 0.901 ± 0.056 | 1.07 ± 0.43 | 0.862 ± 0.29 | 1.03 ± 0.18 | 0.934 ± 0.16 | 1.61 ± 0.055 | 1.08 ± 0.19 | 1.27 ± 0.13 | 1.25 ± 0.068 | 0.975 ± 0.18 |  | 0.824 ± 0.12 | 1.02 ± 0.13 | 0.982 ± 0.09 | 1.52 ± 0.029
4 | SIHA CERVIX | 1.1 ± 0.046 | 1.15 ± 0.024 | 1.12 ± 0.044 | 1.15 ± 0.053 | 1.15 ± 0.025 | 1.21 ± 0.085 | 1.16 ± 0.11 | 1.14 ± 0.051 | 0.957 ± 0.088 |  | 0.972 ± 0.04 | 0.984 ± 0.028 | 1.11 ± 0.047 | 1.02 ± 0.086 | 0.725 ± 0.026 | 0.418 ± 0.04
5 | SJSA1 BONE | 1 ± 0.03 | 1.09 ± 0.044 | 1.02 ± 0.089 | 1.09 ± 0.06 | 1.08 ± 0.036 | 1.14 ± 0.02 | 1.03 ± 0.027 | 1.07 ± 0.044 |  | 0.869 ± 0.017 |  | 0.872 ± 0.022 | 1.02 ± 0.038 |  | 0.8283 ± 0.0078 | 0.579 ± 0.011
6 | SKBR3 BREAST | 0.854 ± 0.14 | 1.05 ± 0.18 | 1.02 ± 0.06 | 0.917 ± 0.086 | 1.11 ± 0.092 | 1.08 ± 0.05 | 0.961 ± 0.11 | 1.06 ± 0.11 |  | 0.795 ± 0.073 | 0.738 ± 0.1 | 0.696 ± 0.12 | 0.875 ± 0.035 | 0.867 ± 0.084 | 0.64 ± 0.064 | 0.492 ± 0.014
7 | SNU475 LIVER | 1.06 ± 0.028 | 1 ± 0.036 | 0.97 ± 0.052 | 1.02 ± 0.011 | 1.01 ± 0.019 | 1.03 ± 0.036 | 1.03 ± 0.037 | 0.965 ± 0.036 |  | 0.729 ± 0.052 | 0.814 ± 0.049 | 0.371 ± 0.031 |  | 0.8163 ± 0.0045 | 0.752 ± 0.022 | 0.193 ± 0.01
8 | SUM44 BREAST | 0.998 ± 0.06 | 0.992 ± 0.035 | 0.983 ± 0.033 | 1.015 ± 0.0072 | 1.04 ± 0.051 | 1.09 ± 0.025 | 1.02 ± 0.031 | 1.05 ± 0.03 | 0.82 ± 0.065 | 0.877 ± 0.02 | 0.966 ± 0.061 | 0.915 ± 0.04 | 1.07 ± 0.076 | 1.11 ± 0.023 |  | 0.958 ± 0.013
9 | SUM149 BREAST | 0.927 ± 0.072 | 0.995 ± 0.09 | 1.03 ± 0.062 | 1.05 ± 0.03 | 1.01 ± 0.08 | 0.98 ± 0.15 | 0.884 ± 0.014 | 0.935 ± 0.068 | 0.797 ± 0.036 | 0.755 ± 0.016 | 0.884 ± 0.052 | 0.213 ± 0.016 | 0.906 ± 0.061 | 0.756 ± 0.039 | 0.619 ± 0.017 | 0.176 ± 0.01
10 | SUM149.B1*.S BREAST | 1.11 ± 0.05 | 1.12 ± 0.044 | 1.1 ± 0.041 | 1.117 ± 0.004 | 1.18 ± 0.046 | 1.2 ± 0.029 | 1.03 ± 0.045 | 1.06 ± 0.068 | 0.877 ± 0.07 | 0.786 ± 0.039 |  | 0.437 ± 0.023 | 0.988 ± 0.02 | 0.873 ± 0.022 | 0.789 ± 0.02 | 0.27 ± 0.0057
11 | SUM159 BREAST | 1.16 ± 0.12 | 1.15 ± 0.098 | 1.13 ± 0.075 | 1.13 ± 0.085 | 1.06 ± 0.044 | 1.11 ± 0.022 | 1.13 ± 0.057 | 1.11 ± 0.035 |  | 0.9683 ± 0.0076 |  | 0.927 ± 0.06 | 0.914 ± 0.12 |  | 0.839 ± 0.13 | 0.548 ± 0.11
12 | SYO1 SYNOVIAL | 1 ± 0.024 | 0.981 ± 0.029 | 0.9374 ± 0.0056 | 1 ± 0.042 | 1.04 ± 0.082 | 1.01 ± 0.02 | 0.98 ± 0.052 | 0.971 ± 0.018 | 0.789 ± 0.035 | 0.609 ± 0.092 | 0.664 ± 0.03 | 0.313 ± 0.13 | 0.819 ± 0.013 | 0.768 ± 0.036 | 0.52 ± 0.014 | 0.0887 ± 0.054
13 | T47D BREAST | 1.07 ± 0.025 | 1.07 ± 0.011 | 1.04 ± 0.022 | 1.1 ± 0.015 | 1.11 ± 0.071 | 1.14 ± 0.018 | 1.09 ± 0.044 | 1.11 ± 0.02 | 0.93 ± 0.037 | 0.896 ± 0.059 | 0.911 ± 0.018 | 0.817 ± 0.034 | 1.11 ± 0.027 | 1.13 ± 0.038 | 1.13 ± 0.04 | 0.985 ± 0.077
14 | U2OS BONE | 1.05 ± 0.06 | 1.06 ± 0.015 | 1.08 ± 0.019 | 1.08 ± 0.034 | 1.1 ± 0.075 | 1.18 ± 0.031 | 1.02 ± 0.041 | 1.04 ± 0.058 | 0.882 ± 0.039 | 0.893 ± 0.032 | 0.95 ± 0.032 |  | 0.956 ± 0.026 | 0.94 ± 0.038 | 0.549 ± 0.014 | 0.262 ± 0.0072
15 | VCAP PROSTATE | 1.04 ± 0.051 | 1.15 ± 0.15 | 1.11 ± 0.14 | 1.19 ± 0.13 | 1.12 ± 0.065 | 1.22 ± 0.12 | 1.14 ± 0.076 | 1.12 ± 0.15 | 0.976 ± 0.065 | 1 ± 0.088 | 1.09 ± 0.07 | 1.02 ± 0.038 | 1.06 ± 0.077 | 1.09 ± 0.099 | 0.734 ± 0.034 | 0.519 ± 0.06
16 | VP229 BREAST | 1.39 ± 0.087 | 1.15 ± 0.2 | 1.13 ± 0.092 | 1.17 ± 0.07 | 1.1 ± 0.2 | 1.05 ± 0.14 | 1.01 ± 0.14 | 0.901 ± 0.084 | 0.708 ± 0.076 | 0.675 ± 0.1 | 0.709 ± 0.04 | 0.709 ± 0.065 | 0.955 ± 0.12 | 0.964 ± 0.038 | 0.762 ± 0.064 | 0.364 ± 0.051
17 | YAMATO SYNOVIAL | 1.34 ± 0.1 | 1.39 ± 0.13 | 1.51 ± 0.082 | 1.39 ± 0.058 | 1.49 ± 0.12 | 1.46 ± 0.11 | 1.49 ± 0.063 | 1.41 ± 0.1 |  | 0.392 ± 0.031 | 0.586 ± 0.058 | 0.0847 ± 0.0081 |  | 0.583 ± 0.021 | 0.588 ± 0.046 | 0.0633 ± 0.0023
18 | ZR751 BREAST | 1.21 ± 0.034 | 1.15 ± 0.031 | 1.13 ± 0.13 | 1.06 ± 0.089 | 1.09 ± 0.041 | 1.17 ± 0.083 | 1.14 ± 0.15 | 1.25 ± 0.24 |  | 1.1 ± 0.16 | 1.15 ± 0.083 |  | 1.31 ± 0.25 |  | 1.22 ± 0.16 | 
